Source: patent US20210060093A1, “COMBINATION THERAPY FOR TREATING OR PREVENTING CANCER” (4D Pharma Research Limited, priority 2018, published 2021)

Key:
immature dendritic cells = assay: Cytokine production in immature dendritic cells; type: cell-based; conditions: MRX518 10^7/ml, LPS 100 ng/ml, FIGS. 4b, 4d
Procedure: A monocyte population was isolated from peripheral blood mononuclear cells (PBMCs). The monocyte cells were subsequently differentiated into immature dendritic cells. The immature dendritic cells were plated out at 200,000 cells/well and incubated with MRX518 at a final concentration of 10^7/ml, with the optional addition of LPS at a final concentration of 100 ng/ml. The negative control involved incubating the cells with RPMI media alone and positive controls incubated the cells with LPS at a final concentration of 100 ng/ml. The cytokine content of the cells was then analysed.

RENCA tumour cells = assay: Antitumor activity, RENCA model; type: in vivo, mouse; conditions: D18 and D22, compared to untreated and vehicle groups, FIG. 3B
Procedure: Treatment schedule—The start of first dosing was considered as D0. On D0, non-engrafted mice were randomized according to their individual body weight into groups of 9 mice using Vivo manager® software (Biosystemes, Couternon, France). On D0, the mice received vehicle (culture medium) or bacterial strain (2×10^8 in 200 μL, PO). On D14, all mice were engrafted with RENCA tumour cells injected SC into the ventral surface of the lower flank as described below. Treatment with anti-CTLA-4 (10 mg/kg, IP) and anti-PDL1 (clone 10F.9G2, 10 mg/kg) was initiated when tumours reached a volume of 50-70 mm3.
Orthotopic induction of RENCA tumor cells in animals by SC injection—On D14, one million (1×10^6) RENCA tumor cells in 50 μL RPMI 1640 medium were transplanted via SC injection into the ventral surface of the lower flank of mice.
Euthanasia—Each mouse was euthanized when it reached a humane endpoint as described in section below, or after a maximum of 6 weeks post start of dosing.
Evaluation of tumour burden at euthanasia—At the time of termination, tumours were collected and their volume evaluated.
Clinical monitoring—The length and width of the tumour was measured twice a week with callipers and the volume of the tumour was estimated by this formula [52]: […]

Compound	level of IL-1β (immature dendritic cells)	reduction in tumour size (RENCA tumour cells)
lipopolysaccharide [LPS]	but not IL-1β	
CC(=O)O[C@H]1C(=O)[C@@]2(C)[C@H]([C@H](OC(=O)c3ccccc3)[C@]3(O)C[C@H](OC(=O)[C@H](O)[C@@H](NC(=O)c4ccccc4)c4ccccc4)C(C)=C1C3(C)C)[C@]1(OC(C)=O)CO[C@@H]1C[C@@H]2O [Paclitaxel]		(almost) complete reduction in tumour size
